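These data come from cells grown in 96-well plates and exposed to compound for 48 hours at five concentrations. TGI is the concentration that stops growth completely.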
How the values were obtained:
Assay in all cases: NCI tumour cell line growth inhibition, 48 h
[1] = system: DU-145 prostate
[2] = system: BT-549 breast
[3] = system: HCT-116 colon
[4] = system: SF-268 CNS
[5] = system: OVCAR-5 ovarian
[6] = system: IGROV1 ovarian
[7] = system: MCF7 breast
[8] = system: SNB-75 CNS
[9] = system: SK-OV-3 ovarian
[10] = system: KM12 colon
[11] = system: HOP-92 NSCLC
[12] = system: HT29 colon
[13] = system: MDA-N
[14] = system: K-562 leukemia
[15] = system: A498 renal
[16] = system: UACC-62 melanoma
[17] = system: SW-620 colon
[18] = system: CAKI-1 renal
[19] = system: TK-10 renal
[20] = system: SR leukemia
[21] = system: CCRF-CEM leukemia
[22] = system: SNB-19 CNS
[23] = system: MDA-MB-231 breast
[24] = system: HL-60(TB) leukemia
[25] = system: PC-3 prostate
[26] = system: SK-MEL-5 melanoma
[27] = system: SK-MEL-2 melanoma
[28] = system: EKVX NSCLC
[29] = system: MOLT-4 leukemia
[30] = system: NCI-H522 lung
[31] = system: SF-539 CNS
[32] = system: RPMI-8226 leukemia
[33] = system: OVCAR-4 ovarian
[34] = system: MALME-3M melanoma
[35] = system: NCI-H23 lung
[36] = system: 786-0 renal
[37] = system: COLO 205 colon
[38] = system: A549 NSCLC
[39] = system: HCT-15 colon
[40] = system: HS 578T breast
[41] = system: M14 melanoma
[42] = system: ACHN renal
[43] = system: OVCAR-3 ovarian
[44] = system: NCI-H226 lung
[45] = system: SK-MEL-28 melanoma
[46] = system: LOX IMVI melanoma
[47] = system: U251 CNS
[48] = system: UACC-257 melanoma
[49] = system: UO-31 renal
[50] = system: MDA-MB-435
[51] = system: NCI/ADR-RES ovarian
[52] = system: OVCAR-8 ovarian
[53] = system: SF-295 CNS
[54] = system: T-47D breast
[55] = system: HOP-62 NSCLC
[56] = system: RXF 393 renal
[57] = system: SN12C renal
[58] = system: NCI-H460 lung
[59] = system: HCC-2998 colon

CC(=O)/C=c1\[nH]/c(=C\C=C\c2ccccc2)c(=O)n1/C=C1\C(=O)Oc2ccccc2C1=O
TGI [1]: > 100 µM | TGI [2]: > 100 µM | TGI [3]: > 100 µM | TGI [4]: > 100 µM | TGI [5]: > 100 µM | TGI [6]: > 100 µM | TGI [7]: > 100 µM | TGI [8]: > 100 µM | TGI [9]: > 100 µM | TGI [10]: > 100 µM | TGI [11]: > 100 µM | TGI [12]: > 100 µM | TGI [13]: > 100 µM | TGI [14]: > 100 µM | TGI [15]: > 100 µM | TGI [16]: > 100 µM | TGI [17]: > 100 µM | TGI [18]: > 100 µM | TGI [19]: > 100 µM | TGI [20]: > 100 µM | TGI [21]: > 100 µM | TGI [22]: > 100 µM | TGI [23]: > 100 µM | TGI [24]: > 100 µM | TGI [25]: > 100 µM | TGI [26]: > 100 µM | TGI [27]: > 100 µM | TGI [28]: > 100 µM | TGI [29]: > 100 µM | TGI [30]: > 100 µM | TGI [31]: > 100 µM | TGI [32]: > 100 µM | TGI [33]: > 100 µM | TGI [34]: > 100 µM | TGI [35]: > 100 µM | TGI [36]: > 100 µM | TGI [37]: > 100 µM | TGI [38]: > 100 µM | TGI [39]: > 100 µM | TGI [40]: > 100 µM | TGI [41]: > 100 µM | TGI [42]: > 100 µM | TGI [43]: > 100 µM | TGI [44]: > 100 µM | TGI [45]: > 100 µM | TGI [46]: > 100 µM | TGI [47]: > 100 µM | TGI [48]: > 100 µM | TGI [49]: > 100 µM | TGI [50]: > 100 µM | TGI [51]: > 100 µM | TGI [52]: > 100 µM

N#CC(C/C=C/c1ccccc1)NNC(=O)c1c(Cl)c(Cl)c(Cl)c(Cl)c1-c1nc2ccc(C(=O)c3ccccc3)cc2[nH]1 (configuration not stated)
TGI [1]: 50.7 µM | TGI [2]: 54.4 µM | TGI [3]: 62.2 µM | TGI [5]: 94.7 µM | TGI [6]: > 100 µM | TGI [7]: 36.2 µM | TGI [8]: 46.4 µM | TGI [53]: 22.4 µM | TGI [54]: 63.8 µM | TGI [9]: 55.5 µM | TGI [55]: 24.8 µM | TGI [10]: > 100 µM | TGI [11]: 73.3 µM | TGI [12]: 33.2 µM | TGI [13]: 19.4 µM | TGI [14]: 55.2 µM | TGI [15]: 41.9 µM | TGI [17]: > 100 µM | TGI [56]: 39.8 µM | TGI [18]: > 100 µM | TGI [19]: 66 µM | TGI [20]: 45.2 µM | TGI [21]: 20.3 µM | TGI [22]: 35.8 µM | TGI [23]: 34.4 µM | TGI [24]: 54.5 µM | TGI [25]: 35.9 µM | TGI [26]: 32 µM | TGI [27]: 45 µM | TGI [28]: 47.4 µM | TGI [29]: 81.5 µM | TGI [31]: 26.9 µM | TGI [32]: 50.2 µM | TGI [33]: 73.9 µM | TGI [35]: 55.8 µM | TGI [36]: 30.2 µM | TGI [37]: 42 µM | TGI [38]: 55.4 µM | TGI [39]: 29.2 µM | TGI [57]: 32.7 µM | TGI [41]: 30.9 µM | TGI [42]: 97.3 µM | TGI [43]: 37.4 µM | TGI [44]: 41.6 µM | TGI [45]: > 100 µM | TGI [46]: 28.5 µM | TGI [47]: 25 µM | TGI [48]: > 100 µM | TGI [49]: > 100 µM | TGI [50]: 51.9 µM | TGI [51]: 31 µM | TGI [52]: 37.1 µM

CN(C)c1ccc(/C=C2\C[C@H]3[C@@H]4CC=C5C[C@@H](O)CC[C@]5(C)[C@H]4CC[C@]3(C)C2=O)cc1
TGI [1]: > 100 µM | TGI [2]: > 100 µM | TGI [3]: > 100 µM | TGI [4]: 27.7 µM | TGI [5]: 46.4 µM | TGI [6]: 35.8 µM | TGI [7]: > 100 µM | TGI [8]: 57 µM | TGI [53]: 75.8 µM | TGI [54]: 62.8 µM | TGI [9]: 63.7 µM | TGI [55]: 38.3 µM | TGI [10]: > 100 µM | TGI [12]: 56.2 µM | TGI [13]: > 100 µM | TGI [14]: > 100 µM | TGI [15]: 38.2 µM | TGI [16]: 32.6 µM | TGI [17]: > 100 µM | TGI [56]: 43.9 µM | TGI [19]: 39.3 µM | TGI [20]: > 100 µM | TGI [58]: 33.7 µM | TGI [22]: 39.3 µM | TGI [23]: 36 µM | TGI [24]: > 100 µM | TGI [25]: 29.3 µM | TGI [26]: > 100 µM | TGI [27]: 41.4 µM | TGI [28]: 93.7 µM | TGI [29]: > 100 µM | TGI [31]: 27.9 µM | TGI [32]: > 100 µM | TGI [33]: 48.2 µM | TGI [34]: 39.6 µM | TGI [35]: 81.2 µM | TGI [36]: 41 µM | TGI [37]: > 100 µM | TGI [38]: 44.4 µM | TGI [39]: > 100 µM | TGI [57]: 54.9 µM | TGI [41]: 46 µM | TGI [42]: 34.8 µM | TGI [43]: 66.8 µM | TGI [44]: 42.3 µM | TGI [45]: 40 µM | TGI [46]: 29 µM | TGI [47]: 25.9 µM | TGI [48]: 40.2 µM | TGI [49]: 18.9 µM | TGI [51]: 66.8 µM | TGI [52]: 19.1 µM

CC(C)(C)OC(=O)NC(CSCc1ccc(C(=O)c2ccccc2)cc1)C(=O)O (configuration not stated)
TGI [1]: > 100 µM | TGI [2]: > 100 µM | TGI [3]: > 100 µM | TGI [4]: > 100 µM | TGI [5]: > 100 µM | TGI [6]: > 100 µM | TGI [7]: > 100 µM | TGI [8]: > 100 µM | TGI [53]: > 100 µM | TGI [55]: > 100 µM | TGI [10]: > 100 µM | TGI [11]: > 100 µM | TGI [12]: > 100 µM | TGI [13]: > 100 µM | TGI [14]: > 100 µM | TGI [15]: > 100 µM | TGI [17]: > 100 µM | TGI [56]: > 100 µM | TGI [18]: > 100 µM | TGI [19]: > 100 µM | TGI [20]: > 100 µM | TGI [58]: > 100 µM | TGI [21]: > 100 µM | TGI [22]: > 100 µM | TGI [23]: > 100 µM | TGI [24]: > 100 µM | TGI [25]: > 100 µM | TGI [59]: > 100 µM | TGI [26]: > 100 µM | TGI [28]: > 100 µM | TGI [29]: > 100 µM | TGI [30]: > 100 µM | TGI [31]: > 100 µM | TGI [32]: > 100 µM | TGI [33]: > 100 µM | TGI [34]: > 100 µM | TGI [35]: > 100 µM | TGI [36]: > 100 µM | TGI [37]: > 100 µM | TGI [38]: > 100 µM | TGI [39]: > 100 µM | TGI [40]: > 100 µM | TGI [57]: > 100 µM | TGI [42]: > 100 µM | TGI [43]: > 100 µM | TGI [44]: > 100 µM | TGI [45]: > 100 µM | TGI [46]: > 100 µM | TGI [47]: > 100 µM | TGI [48]: > 100 µM | TGI [49]: > 100 µM | TGI [50]: > 100 µM | TGI [51]: > 100 µM | TGI [52]: > 100 µM

O=c1c2cc(I)ccc2nc(Sc2ccc([N+](=O)[O-])cc2[N+](=O)[O-])n1Cc1ccccc1
TGI [1]: 12.7 µM | TGI [2]: 9.46 µM | TGI [3]: 2.71 µM | TGI [4]: 3.77 µM | TGI [5]: 22.7 µM | TGI [6]: 6.42 µM | TGI [7]: 5.59 µM | TGI [8]: 16.7 µM | TGI [53]: 35.3 µM | TGI [9]: > 56.8 µM | TGI [55]: 12.3 µM | TGI [10]: > 31.2 µM | TGI [11]: 8.56 µM | TGI [12]: 13.6 µM | TGI [13]: 3.89 µM | TGI [14]: > 100 µM | TGI [15]: 21.3 µM | TGI [16]: 7.24 µM | TGI [17]: > 100 µM | TGI [56]: 12.4 µM | TGI [18]: 24.7 µM | TGI [19]: 20.7 µM | TGI [20]: > 100 µM | TGI [58]: 29 µM | TGI [22]: 20.4 µM | TGI [23]: 16.9 µM | TGI [24]: 5.5 µM | TGI [25]: 13.8 µM | TGI [59]: 11.1 µM | TGI [26]: 17.8 µM | TGI [27]: 3.73 µM | TGI [28]: 17.4 µM | TGI [29]: > 100 µM | TGI [30]: 2.57 µM | TGI [31]: 4.09 µM | TGI [32]: > 20.1 µM | TGI [33]: 15.6 µM | TGI [34]: 17.1 µM | TGI [35]: 14.2 µM | TGI [36]: 2.25 µM | TGI [37]: 17.2 µM | TGI [38]: > 85 µM | TGI [39]: 3.82 µM | TGI [40]: > 36.1 µM | TGI [57]: 2.95 µM | TGI [41]: 5.31 µM | TGI [42]: 26.1 µM | TGI [43]: 4.87 µM | TGI [44]: 10.3 µM | TGI [45]: 35.2 µM | TGI [46]: 2.89 µM | TGI [47]: 13.2 µM | TGI [48]: 15.4 µM | TGI [49]: 4.13 µM | TGI [50]: 5.35 µM | TGI [51]: 5.44 µM | TGI [52]: 4.58 µM

From PubChem BioAssay (NCI)
